Laboratory results from ChEMBL document CHEMBL5154936, “Scaffold Hopping Strategy to Identify Prostanoid EP4 Receptor Antagonists for Cancer Immunotherapy” (J Med Chem, 2022).
Each block holds one compound with its values, some of them ahead of it.

Experiments:
[1] = biological target: Prostaglandin E2 receptor EP4 subtype (Homo sapiens, UniProt P35408); assay: Antagonist activity at human EP4 receptor transfected in CHO/Galpha16 cells preincubated for 15 mins followed by PGE2 addition by calcium flux assay; type: functional, cell-based
[2] = biological target: T1, Prostaglandin E2 receptor EP3 subtype (Homo sapiens, UniProt P43115); assay: Antagonist activity at human EP3 receptor transfected in CHO/Galpha16 cells preincubated for 15 mins followed by PGE2 addition by calcium flux assay; type: functional, cell-based
T1 sequence (P43115 whole entry): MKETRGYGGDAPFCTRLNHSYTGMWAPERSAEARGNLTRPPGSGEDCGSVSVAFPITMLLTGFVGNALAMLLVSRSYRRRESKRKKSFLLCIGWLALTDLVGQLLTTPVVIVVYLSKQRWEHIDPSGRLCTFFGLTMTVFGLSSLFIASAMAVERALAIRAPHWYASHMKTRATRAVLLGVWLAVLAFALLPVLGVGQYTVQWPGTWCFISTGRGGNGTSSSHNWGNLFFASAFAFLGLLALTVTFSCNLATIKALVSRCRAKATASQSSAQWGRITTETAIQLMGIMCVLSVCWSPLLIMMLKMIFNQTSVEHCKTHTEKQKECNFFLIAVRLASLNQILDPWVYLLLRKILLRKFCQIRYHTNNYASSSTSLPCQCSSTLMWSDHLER

[3] = biological target: Prostaglandin E2 receptor EP2 subtype (Homo sapiens, UniProt P43116); assay: Antagonist activity at human EP2 receptor transfected in CHO/Galpha16 cells preincubated for 15 mins followed by PGE2 addition by calcium flux assay; type: functional, cell-based
[4] = biological target: T2, Prostaglandin E2 receptor EP1 subtype (Homo sapiens, UniProt P34995); assay: Antagonist activity at human EP1 receptor transfected in CHO/Galpha16 cells preincubated for 15 mins followed by PGE2 addition by calcium flux assay; type: functional, cell-based
T2 sequence (P34995 whole entry): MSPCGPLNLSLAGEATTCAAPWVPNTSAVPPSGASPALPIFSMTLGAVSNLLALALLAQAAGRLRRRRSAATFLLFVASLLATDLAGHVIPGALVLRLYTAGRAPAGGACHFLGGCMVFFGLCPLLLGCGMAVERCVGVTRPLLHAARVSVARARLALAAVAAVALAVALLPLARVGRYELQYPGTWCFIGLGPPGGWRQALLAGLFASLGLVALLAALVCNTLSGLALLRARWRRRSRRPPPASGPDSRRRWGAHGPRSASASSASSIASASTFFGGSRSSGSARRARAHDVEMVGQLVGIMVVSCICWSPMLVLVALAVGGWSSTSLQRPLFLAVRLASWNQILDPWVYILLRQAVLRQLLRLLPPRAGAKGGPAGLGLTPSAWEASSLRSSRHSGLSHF

[5] = Metabolic stability in human liver microsomes assessed as half life; type: ADME, Microsome
[6] = Cytotoxicity against HEK293 cells assessed as reduction in cell viability incubated for 72 hrs by CCK-8 assay; type: toxicity, cell-based; conditions: human
[7] = Metabolic stability in human liver microsomes assessed as parent compound remaining at 10 uM measured after 60 mins; type: ADME, Microsome; conditions: read-out: Stability
CYP2B6 = biological target: T3, CYP2B6 (Homo sapiens, UniProt P20813); assay: Inhibition of CYP2B6 (unknown origin) at 20 uM; type: ADME
T3 sequence (P20813 whole entry): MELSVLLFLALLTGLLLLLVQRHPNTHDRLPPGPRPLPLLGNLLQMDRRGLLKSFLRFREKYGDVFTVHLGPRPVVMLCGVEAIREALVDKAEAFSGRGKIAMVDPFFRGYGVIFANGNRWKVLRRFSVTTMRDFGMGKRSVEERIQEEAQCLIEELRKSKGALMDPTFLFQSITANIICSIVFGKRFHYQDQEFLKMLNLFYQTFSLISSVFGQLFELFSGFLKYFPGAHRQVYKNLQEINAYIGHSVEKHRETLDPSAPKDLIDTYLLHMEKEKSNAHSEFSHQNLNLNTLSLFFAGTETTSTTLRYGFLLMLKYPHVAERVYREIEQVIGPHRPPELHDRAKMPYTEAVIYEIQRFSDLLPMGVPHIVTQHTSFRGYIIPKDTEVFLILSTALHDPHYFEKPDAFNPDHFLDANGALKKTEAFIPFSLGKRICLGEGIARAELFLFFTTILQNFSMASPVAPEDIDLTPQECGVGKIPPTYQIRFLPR

[8] = Metabolic stability in mouse liver microsomes assessed as half life; type: ADME, Microsome
[9] = Metabolic stability in mouse liver microsomes assessed as parent compound remaining at 10 uM measured after 60 mins; type: ADME, Microsome; conditions: read-out: Stability
[10] = biological target: Prostaglandin E2 receptor EP4 subtype (Mus musculus, UniProt P32240); assay: Antagonist activity at mouse EP4 receptor transfected in CHO/Galpha16 cells preincubated for 15 mins followed by PGE2 addition by calcium flux assay; type: functional, cell-based
CT26 = assay: Antitumor activity against mouse CT26 cells allografted in BALB/c mouse assessed as tumor growth inhibition at 75 mg/kg, po administered once a day for 14 days; type: functional; conditions: CT26, 336 h, time 14 day, read-out: TGI
CYP2C9 = CYP2C9 (Homo sapiens, UniProt P11712); assay: Inhibition of CYP2C9 (unknown origin) at 20 uM; type: ADME
CYP2D6 = CYP2D6 (Homo sapiens, UniProt P10635); assay: Inhibition of CYP2D6 (unknown origin) at 20 uM; type: ADME
[11] = Metabolic stability in human liver microsomes assessed as intrinsic clearance; type: ADME, Microsome; conditions: read-out: CLH
[12] = Metabolic stability in mouse liver microsomes assessed as intrinsic clearance; type: ADME, Microsome; conditions: read-out: CLH
CYP2E1 = CYP2E1 (Homo sapiens, UniProt P05181); assay: Inhibition of CYP2E1 (unknown origin) at 20 uM; type: ADME
CYP1A2 = biological target: T4, CYP1A2 (Homo sapiens, UniProt P05177); assay: Inhibition of CYP1A2 (unknown origin) at 20 uM; type: ADME
T4 sequence (P05177 whole entry): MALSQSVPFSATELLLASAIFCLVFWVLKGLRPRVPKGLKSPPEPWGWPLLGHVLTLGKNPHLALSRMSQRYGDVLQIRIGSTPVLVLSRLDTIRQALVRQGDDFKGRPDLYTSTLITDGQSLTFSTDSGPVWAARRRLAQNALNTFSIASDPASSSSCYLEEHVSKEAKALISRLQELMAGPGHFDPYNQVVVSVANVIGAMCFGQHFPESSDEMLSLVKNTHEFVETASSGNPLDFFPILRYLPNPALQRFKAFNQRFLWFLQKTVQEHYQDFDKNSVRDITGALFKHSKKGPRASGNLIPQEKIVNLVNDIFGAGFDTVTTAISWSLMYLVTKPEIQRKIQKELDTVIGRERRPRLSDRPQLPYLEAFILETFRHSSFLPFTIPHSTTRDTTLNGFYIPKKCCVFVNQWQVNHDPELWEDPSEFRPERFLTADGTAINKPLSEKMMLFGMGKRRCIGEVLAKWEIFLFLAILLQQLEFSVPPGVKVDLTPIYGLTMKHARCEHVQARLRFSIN

Sequence of Prostaglandin E2 receptor EP2 subtype (P43116 whole entry): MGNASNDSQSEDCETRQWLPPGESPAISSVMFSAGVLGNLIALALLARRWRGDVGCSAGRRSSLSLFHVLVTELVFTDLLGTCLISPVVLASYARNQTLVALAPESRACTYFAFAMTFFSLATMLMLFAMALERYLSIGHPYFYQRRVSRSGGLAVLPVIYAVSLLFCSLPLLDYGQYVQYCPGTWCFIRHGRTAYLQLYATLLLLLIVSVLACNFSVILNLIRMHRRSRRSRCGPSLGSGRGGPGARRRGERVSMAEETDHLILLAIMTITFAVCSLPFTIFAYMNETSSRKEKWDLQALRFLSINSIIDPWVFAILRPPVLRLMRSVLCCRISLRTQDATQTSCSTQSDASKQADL
Sequence of Prostaglandin E2 receptor EP4 subtype (Homo sapiens, UniProt P35408) (P35408 whole entry): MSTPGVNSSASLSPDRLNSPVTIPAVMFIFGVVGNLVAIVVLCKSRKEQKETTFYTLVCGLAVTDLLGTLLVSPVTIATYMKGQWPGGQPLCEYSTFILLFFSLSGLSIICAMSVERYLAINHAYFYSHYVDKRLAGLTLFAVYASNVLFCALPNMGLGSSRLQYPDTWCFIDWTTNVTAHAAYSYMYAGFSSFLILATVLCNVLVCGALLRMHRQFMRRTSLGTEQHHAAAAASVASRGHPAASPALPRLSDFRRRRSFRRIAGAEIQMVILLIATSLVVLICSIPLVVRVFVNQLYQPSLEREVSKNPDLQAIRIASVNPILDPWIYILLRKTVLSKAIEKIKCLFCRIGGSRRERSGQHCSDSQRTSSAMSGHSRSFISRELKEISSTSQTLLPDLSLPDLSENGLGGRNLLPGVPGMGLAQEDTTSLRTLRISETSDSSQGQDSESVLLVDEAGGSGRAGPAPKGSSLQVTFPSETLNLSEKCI
Sequence of Prostaglandin E2 receptor EP4 subtype (Mus musculus, UniProt P32240) (P32240 whole entry): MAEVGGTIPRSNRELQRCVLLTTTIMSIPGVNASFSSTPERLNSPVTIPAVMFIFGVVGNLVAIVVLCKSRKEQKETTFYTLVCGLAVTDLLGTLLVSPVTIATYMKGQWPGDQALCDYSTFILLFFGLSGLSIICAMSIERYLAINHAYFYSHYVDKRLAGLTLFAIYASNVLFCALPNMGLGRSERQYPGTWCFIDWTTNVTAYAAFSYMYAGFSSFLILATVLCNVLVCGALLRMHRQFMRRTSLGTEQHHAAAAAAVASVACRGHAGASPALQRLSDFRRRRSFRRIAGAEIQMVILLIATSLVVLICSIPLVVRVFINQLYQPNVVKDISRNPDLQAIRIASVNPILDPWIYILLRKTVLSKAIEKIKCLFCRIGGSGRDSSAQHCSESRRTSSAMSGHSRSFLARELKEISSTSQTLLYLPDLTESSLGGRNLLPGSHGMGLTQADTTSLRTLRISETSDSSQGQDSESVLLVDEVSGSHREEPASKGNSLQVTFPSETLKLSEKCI
Sequence of CYP2E1 (P05181 whole entry): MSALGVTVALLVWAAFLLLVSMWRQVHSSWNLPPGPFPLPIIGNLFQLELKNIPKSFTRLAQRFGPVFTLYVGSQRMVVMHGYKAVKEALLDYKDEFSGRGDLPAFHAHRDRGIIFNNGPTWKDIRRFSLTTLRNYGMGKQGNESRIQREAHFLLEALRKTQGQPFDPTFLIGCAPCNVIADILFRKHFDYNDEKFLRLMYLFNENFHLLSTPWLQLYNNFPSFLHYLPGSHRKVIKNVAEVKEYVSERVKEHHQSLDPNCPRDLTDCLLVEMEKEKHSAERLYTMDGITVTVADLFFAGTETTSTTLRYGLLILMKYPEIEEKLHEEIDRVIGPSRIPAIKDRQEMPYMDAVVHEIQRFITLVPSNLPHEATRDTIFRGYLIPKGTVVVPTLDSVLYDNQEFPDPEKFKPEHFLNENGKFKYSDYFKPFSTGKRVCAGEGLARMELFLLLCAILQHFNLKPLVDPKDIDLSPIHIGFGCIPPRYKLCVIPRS
Sequence of CYP2C9 (P11712 whole entry): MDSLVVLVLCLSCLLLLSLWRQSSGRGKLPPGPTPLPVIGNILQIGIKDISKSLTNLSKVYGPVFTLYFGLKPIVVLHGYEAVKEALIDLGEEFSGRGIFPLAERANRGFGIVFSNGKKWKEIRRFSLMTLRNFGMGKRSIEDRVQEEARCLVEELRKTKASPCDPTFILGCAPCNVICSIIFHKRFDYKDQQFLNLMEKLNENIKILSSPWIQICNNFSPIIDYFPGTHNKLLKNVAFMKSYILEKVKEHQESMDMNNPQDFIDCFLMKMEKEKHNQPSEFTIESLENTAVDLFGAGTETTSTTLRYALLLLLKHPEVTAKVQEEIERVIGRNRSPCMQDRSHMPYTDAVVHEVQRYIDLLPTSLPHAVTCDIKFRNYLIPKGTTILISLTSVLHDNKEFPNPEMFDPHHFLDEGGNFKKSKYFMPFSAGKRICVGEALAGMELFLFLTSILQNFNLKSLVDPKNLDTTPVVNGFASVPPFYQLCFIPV
Sequence of CYP2D6 (P10635 whole entry): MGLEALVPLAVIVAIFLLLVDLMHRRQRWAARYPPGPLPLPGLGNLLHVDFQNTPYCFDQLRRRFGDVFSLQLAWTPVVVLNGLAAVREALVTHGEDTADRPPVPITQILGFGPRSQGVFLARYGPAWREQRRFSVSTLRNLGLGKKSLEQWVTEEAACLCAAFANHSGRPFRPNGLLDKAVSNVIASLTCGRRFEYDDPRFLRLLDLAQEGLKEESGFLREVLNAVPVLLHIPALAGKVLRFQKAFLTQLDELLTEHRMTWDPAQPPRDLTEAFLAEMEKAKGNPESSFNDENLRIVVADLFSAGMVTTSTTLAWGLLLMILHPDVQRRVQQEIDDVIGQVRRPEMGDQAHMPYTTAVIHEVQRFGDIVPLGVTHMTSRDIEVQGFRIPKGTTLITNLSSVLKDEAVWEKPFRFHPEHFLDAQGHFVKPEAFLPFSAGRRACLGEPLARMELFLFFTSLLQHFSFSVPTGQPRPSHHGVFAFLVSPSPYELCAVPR

IC50 [1]: > 1000 nM
SMILES: C[C@H](NC(=O)c1c(NC(=O)c2ccc(F)cc2)sc2c1CCOC2)c1ccc(C(=O)O)cc1

IC50 [2]: > 10 µM
IC50 [3]: > 10 µM
IC50 [4]: > 10 µM
SMILES: COc1ccc(Cc2sc3c(c2C(=O)N[C@@H](C)c2ccc(C(=O)O)cc2)CCOC3)cc1F

half-life [5]: > 145 min
remaining at 1 h, 10 µM [7]: 83.6%
inhibition at 20 µM (CYP2B6): 77%
half-life [8]: > 145 min
remaining at 1 h, 10 µM [9]: 95.7%
IC50 [10]: 101 nM
inhibition at 20 µM (CYP2C9): 33%
inhibition at 20 µM (CYP2D6): 65%
microsomal CLint [11]: < 9.6 µL/min/mg
microsomal CLint [12]: < 9.6 µL/min/mg
inhibition at 20 µM (CYP2E1): 21%
inhibition at 20 µM (CYP1A2): 59%
SMILES: C[C@H](NC(=O)c1c(C(F)F)nn(C)c1Oc1cccc(C(F)(F)F)c1)c1ccc(C(=O)O)cc1 [PALUPIPRANT]
IC50 at 72 h [6]: > 100 µM
inhibition in vivo at 75 mg/kg (CT26): 39.9%

IC50 [1]: > 1000 nM
SMILES: CC(=O)N1CCc2c(sc(CCc3ccc(F)cc3)c2C(=O)N[C@@H](C)c2ccc(C(=O)O)cc2)C1

IC50 [1]: 27.2 nM
SMILES: COc1ccc2cc(C#Cc3sc4c(c3C(=O)N[C@@H](C)c3ccc(C(=O)O)cc3)CCOC4)ccc2c1

IC50 [1]: 9.5 nM
SMILES: C[C@H](NC(=O)c1c(Cc2ccc(C(C)(C)C)cc2)sc2c1CCOC2)c1ccc(C(=O)O)cc1

IC50 [1]: > 1000 nM
SMILES: COC(=O)c1ccc([C@H](C)NC(=O)c2c(Cc3ccc(F)cc3)sc3c2CCOC3)cc1

IC50 [1]: 3.2 nM
SMILES: C[C@H](NC(=O)c1c(Cc2cccc(Cl)c2)sc2c1CCOC2)c1ccc(C(=O)O)cc1

IC50 [1]: 74.9 nM
SMILES: C[C@H](NC(=O)c1c(Cc2ccc(F)cc2)sc2c1CCOC2)c1ccc(C(=O)NN)cc1

IC50 [1]: 6.6 nM
SMILES: C[C@H](NC(=O)c1c(Cc2ccc(OC(F)(F)F)c(Cl)c2)sc2c1CCOC2)c1ccc(C(=O)O)cc1

IC50 [1]: 30.3 nM
SMILES: O=C(NCC1CCC(C(=O)O)CC1)c1c(Cc2ccc(F)cc2)sc2c1CCOC2 (stereo not drawn)

IC50 [1]: 2.7 nM
SMILES: CC(C)c1ccc(Cc2sc3c(c2C(=O)N[C@@H](C)c2ccc(C(=O)O)cc2)CCOC3)cc1

IC50 [1]: 5.1 nM
SMILES: C[C@H](NC(=O)c1c(Cc2cccc(F)c2)sc2c1CCOC2)c1ccc(C(=O)O)cc1

half-life [5]: 6.3 min
remaining at 1 h, 10 µM [7]: 12.2%
half-life [8]: 16.1 min
remaining at 1 h, 10 µM [9]: 6.8%
IC50 [2]: > 10 µM
IC50 [10]: 19.8 nM
IC50 [3]: > 10 µM
IC50 [4]: > 10 µM
microsomal CLint [11]: 221 µL/min/mg
microsomal CLint [12]: 86.1 µL/min/mg
SMILES: C[C@H](NC(=O)c1c(CCc2ccc(F)cc2)sc2c1CCC2)c1ccc(C(=O)O)cc1

IC50 [2]: > 10 µM
IC50 [10]: 66.7 nM
IC50 [3]: > 10 µM
IC50 [4]: > 10 µM
IC50 [1]: 32.9 nM
SMILES: C[C@H](NC(=O)c1c(NCc2ccc(C(F)(F)F)cc2)sc2c1CCOC2)c1ccc(C(=O)O)cc1
